Laboratory results reported in US7074789B2, “Kinase inhibitors” (Amgen Inc., priority 1999, dated 2006).
Where two headings read alike, the source gives them in different places.

Tests used:
Format in all cases: biochemical
Lck = biological target: T1, Lck (Homo sapiens, UniProt P06239); experiment: Kinase inhibition assay (33P transfer), Lck; settings: read-out: Lck-1
T1 construct: Kinases are expressed as either kinase domains or full length constructs; made in house
Method in brief: (§1)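 Radiometric readout: 33P incorporated into surface-bound poly(Glu,Tyr) 4:1 or poly(Arg,Ser) 3:1 is counted by liquid scintillation after a 0.5% phosphoric acid wash. Enzymes were GST or polyHis fusions (kinase domain or full length) from E. coli or High Five insect cells.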

Zap-70 = biological target: T2, Zap-70 (Homo sapiens, UniProt P43403); experiment: Kinase inhibition assay (33P transfer), Zap-70; settings: read-out: Zap-1
T2 construct: Kinases are expressed as either kinase domains or full length constructs; made in house
T2 sequence (P43403 1-619): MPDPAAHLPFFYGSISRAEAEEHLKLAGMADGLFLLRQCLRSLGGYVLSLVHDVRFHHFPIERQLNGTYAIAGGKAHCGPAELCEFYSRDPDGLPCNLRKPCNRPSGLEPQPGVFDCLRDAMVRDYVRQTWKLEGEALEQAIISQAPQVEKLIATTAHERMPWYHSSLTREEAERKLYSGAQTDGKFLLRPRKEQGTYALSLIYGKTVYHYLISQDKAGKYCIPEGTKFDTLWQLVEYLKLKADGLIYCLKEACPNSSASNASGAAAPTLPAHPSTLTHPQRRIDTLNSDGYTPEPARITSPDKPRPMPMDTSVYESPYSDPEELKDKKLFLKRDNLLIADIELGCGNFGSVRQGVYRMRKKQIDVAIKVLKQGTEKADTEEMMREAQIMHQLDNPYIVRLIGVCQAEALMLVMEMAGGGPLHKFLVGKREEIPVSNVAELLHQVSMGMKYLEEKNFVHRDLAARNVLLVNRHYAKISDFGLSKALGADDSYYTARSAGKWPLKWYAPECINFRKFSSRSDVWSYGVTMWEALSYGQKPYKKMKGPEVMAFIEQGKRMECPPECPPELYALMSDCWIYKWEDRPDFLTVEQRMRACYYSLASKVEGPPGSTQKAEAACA
Method in brief: as §1

Itk = biological target: T3, Itk (Homo sapiens, UniProt Q08881); experiment: Kinase inhibition assay (33P transfer), Itk; settings: read-out: Itk-1
T3 construct: Kinases are expressed as either kinase domains or full length constructs; made in house
T3 sequence (Q08881 1-620): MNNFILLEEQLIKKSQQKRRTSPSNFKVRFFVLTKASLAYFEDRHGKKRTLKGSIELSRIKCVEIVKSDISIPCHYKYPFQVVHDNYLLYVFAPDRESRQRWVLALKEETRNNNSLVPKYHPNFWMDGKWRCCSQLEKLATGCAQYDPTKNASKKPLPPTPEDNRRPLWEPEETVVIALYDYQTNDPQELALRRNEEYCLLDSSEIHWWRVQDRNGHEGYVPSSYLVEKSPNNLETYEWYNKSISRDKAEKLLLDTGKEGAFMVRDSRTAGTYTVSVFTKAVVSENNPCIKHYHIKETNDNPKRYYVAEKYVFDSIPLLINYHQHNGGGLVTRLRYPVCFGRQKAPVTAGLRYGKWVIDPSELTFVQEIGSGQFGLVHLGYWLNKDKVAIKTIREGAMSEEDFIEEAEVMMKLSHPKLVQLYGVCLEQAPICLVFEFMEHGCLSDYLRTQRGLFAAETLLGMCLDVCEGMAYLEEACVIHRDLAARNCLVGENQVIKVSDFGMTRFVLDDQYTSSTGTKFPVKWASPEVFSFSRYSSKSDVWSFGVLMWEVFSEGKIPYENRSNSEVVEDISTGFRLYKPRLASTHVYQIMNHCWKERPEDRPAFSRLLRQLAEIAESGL
Method in brief: (§2)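 Steps: coat wells with poly(Glu,Tyr) 4:1 or poly(Arg,Ser) 3:1; add purified kinase, [33P]ATP and inhibitor; incubate; wash with 0.5% phosphoric acid; add liquid scintillant; count. IC50 corresponds to half-maximal reduction of bound 33P.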

EGFR = biological target: T4, EGFR (Homo sapiens, UniProt P00533); experiment: Kinase inhibition assay (33P transfer), EGFR; settings: Table 2, kinase inhibition class; read-out: EGFR-1
T4 construct: Kinases are expressed as either kinase domains or full length constructs; made in house
Method in brief: as §2

ErbB2 = biological target: T5, ErbB2 (Homo sapiens, UniProt P04626); experiment: Kinase inhibition assay (33P transfer), ErbB2; settings: read-out: ErbB2-2
T5 construct: Kinases are expressed as either kinase domains or full length constructs; made in house
T5 sequence (P04626 23-1255, species assumed): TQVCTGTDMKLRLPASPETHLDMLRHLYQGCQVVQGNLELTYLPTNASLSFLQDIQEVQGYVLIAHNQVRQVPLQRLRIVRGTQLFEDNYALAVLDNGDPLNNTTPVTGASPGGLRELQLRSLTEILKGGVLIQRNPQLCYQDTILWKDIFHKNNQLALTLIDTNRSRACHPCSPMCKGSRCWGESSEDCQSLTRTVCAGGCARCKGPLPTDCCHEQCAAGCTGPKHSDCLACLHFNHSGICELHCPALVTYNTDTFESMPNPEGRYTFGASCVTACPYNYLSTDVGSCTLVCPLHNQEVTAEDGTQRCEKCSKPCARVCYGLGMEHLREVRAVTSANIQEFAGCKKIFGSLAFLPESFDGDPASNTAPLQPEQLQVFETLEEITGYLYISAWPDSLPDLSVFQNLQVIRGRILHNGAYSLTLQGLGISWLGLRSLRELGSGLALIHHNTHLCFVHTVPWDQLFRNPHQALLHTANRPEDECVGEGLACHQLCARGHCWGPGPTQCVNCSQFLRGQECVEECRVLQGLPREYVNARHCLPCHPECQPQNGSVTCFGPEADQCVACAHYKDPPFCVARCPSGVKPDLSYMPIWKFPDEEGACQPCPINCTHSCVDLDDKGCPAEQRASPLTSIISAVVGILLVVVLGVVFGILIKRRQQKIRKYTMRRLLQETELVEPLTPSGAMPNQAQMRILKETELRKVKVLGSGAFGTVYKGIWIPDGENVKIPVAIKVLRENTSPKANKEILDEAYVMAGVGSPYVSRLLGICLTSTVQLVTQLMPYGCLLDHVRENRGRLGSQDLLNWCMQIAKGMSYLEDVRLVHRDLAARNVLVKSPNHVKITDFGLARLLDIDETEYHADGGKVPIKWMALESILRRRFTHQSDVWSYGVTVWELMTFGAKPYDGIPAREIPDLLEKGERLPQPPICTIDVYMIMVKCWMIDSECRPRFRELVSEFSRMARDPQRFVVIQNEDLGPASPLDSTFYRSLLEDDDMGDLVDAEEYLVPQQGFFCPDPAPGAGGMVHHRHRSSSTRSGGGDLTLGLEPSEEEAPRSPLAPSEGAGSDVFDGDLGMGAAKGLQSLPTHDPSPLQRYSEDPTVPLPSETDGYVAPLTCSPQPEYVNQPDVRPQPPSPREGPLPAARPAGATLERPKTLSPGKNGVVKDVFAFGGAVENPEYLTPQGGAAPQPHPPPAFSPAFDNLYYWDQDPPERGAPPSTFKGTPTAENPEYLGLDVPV
Method in brief: as §2

Kdr = biological target: T6, Kdr (Homo sapiens, UniProt P35968); experiment: Kinase inhibition assay (33P transfer), Kdr
T6 construct: Kinases are expressed as either kinase domains or full length constructs; made in house
Method in brief: as §1

Tek = biological target: T7, Tek (Homo sapiens, UniProt Q02763); experiment: Kinase inhibition assay (33P transfer), Tek; settings: read-out: Tek-1
T7 construct: Kinases are expressed as either kinase domains or full length constructs; made in house
Method in brief: as §2

c-Met = biological target: T8, c-Met (Homo sapiens, UniProt P08581); experiment: Kinase inhibition assay (33P transfer), c-Met; settings: Table 2, kinase inhibition class; read-out: Met-1
T8 construct: Kinases are expressed as either kinase domains or full length constructs; made in house
T8 sequence (P08581 25-1390): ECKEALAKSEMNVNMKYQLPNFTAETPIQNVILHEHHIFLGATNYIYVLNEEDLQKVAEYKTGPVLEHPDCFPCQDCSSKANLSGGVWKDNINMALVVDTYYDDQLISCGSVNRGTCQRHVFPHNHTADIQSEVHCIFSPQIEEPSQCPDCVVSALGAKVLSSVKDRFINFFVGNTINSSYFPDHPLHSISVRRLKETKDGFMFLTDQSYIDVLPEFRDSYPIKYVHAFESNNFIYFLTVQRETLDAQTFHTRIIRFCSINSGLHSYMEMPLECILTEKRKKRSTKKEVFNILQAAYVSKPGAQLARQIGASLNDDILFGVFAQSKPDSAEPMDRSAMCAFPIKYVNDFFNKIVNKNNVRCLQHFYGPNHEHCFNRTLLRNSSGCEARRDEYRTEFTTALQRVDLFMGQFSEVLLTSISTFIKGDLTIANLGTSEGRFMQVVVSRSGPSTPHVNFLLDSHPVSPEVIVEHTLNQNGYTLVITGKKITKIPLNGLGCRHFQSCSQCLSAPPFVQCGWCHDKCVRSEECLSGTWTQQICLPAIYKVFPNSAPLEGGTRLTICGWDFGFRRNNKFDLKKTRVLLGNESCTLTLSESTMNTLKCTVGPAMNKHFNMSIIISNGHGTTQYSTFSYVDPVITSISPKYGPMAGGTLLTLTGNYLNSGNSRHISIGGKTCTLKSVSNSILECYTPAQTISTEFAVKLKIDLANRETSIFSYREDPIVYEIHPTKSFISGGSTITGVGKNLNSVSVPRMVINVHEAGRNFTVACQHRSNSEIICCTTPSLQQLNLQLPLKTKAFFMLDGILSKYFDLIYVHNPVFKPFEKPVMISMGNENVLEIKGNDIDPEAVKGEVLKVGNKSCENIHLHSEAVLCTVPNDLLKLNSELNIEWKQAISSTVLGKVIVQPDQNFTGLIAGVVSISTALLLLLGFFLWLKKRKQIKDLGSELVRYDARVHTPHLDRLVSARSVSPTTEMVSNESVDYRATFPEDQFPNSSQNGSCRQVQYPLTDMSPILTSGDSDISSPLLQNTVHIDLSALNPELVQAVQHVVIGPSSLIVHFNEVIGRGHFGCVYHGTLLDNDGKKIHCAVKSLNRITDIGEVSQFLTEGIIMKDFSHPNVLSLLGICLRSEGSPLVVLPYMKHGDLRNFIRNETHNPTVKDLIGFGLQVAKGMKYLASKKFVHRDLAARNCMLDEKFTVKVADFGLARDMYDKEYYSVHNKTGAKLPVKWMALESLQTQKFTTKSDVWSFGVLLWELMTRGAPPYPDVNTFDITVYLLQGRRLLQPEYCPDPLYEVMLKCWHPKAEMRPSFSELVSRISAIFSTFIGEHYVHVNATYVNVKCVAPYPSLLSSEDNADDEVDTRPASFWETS
Method in brief: as §2

AKT = biological target: T9, AKT (Homo sapiens, UniProt Q9Y243); experiment: Kinase inhibition assay (33P transfer), AKT; settings: Table 2, kinase inhibition class; read-out: AKT3-1
T9 construct: Kinases are expressed as either kinase domains or full length constructs; made in house
T9 sequence (Q9Y243 whole entry, the tested form may be a part): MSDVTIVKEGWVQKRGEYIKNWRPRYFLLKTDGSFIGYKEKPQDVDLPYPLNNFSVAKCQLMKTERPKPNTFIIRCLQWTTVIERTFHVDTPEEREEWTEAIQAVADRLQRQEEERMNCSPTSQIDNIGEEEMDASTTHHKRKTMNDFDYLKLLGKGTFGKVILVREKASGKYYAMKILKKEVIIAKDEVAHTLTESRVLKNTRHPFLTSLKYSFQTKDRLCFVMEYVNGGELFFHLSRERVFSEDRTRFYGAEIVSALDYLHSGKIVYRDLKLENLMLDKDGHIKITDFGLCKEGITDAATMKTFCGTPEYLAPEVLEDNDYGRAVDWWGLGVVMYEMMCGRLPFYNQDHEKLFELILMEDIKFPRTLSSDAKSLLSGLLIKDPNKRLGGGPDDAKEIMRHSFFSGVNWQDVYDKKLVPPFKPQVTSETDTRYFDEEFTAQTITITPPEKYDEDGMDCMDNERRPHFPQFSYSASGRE
Method in brief: as §1

IGFR-1 = biological target: T10, IGFR-1 (Homo sapiens, UniProt P08069); experiment: Kinase inhibition assay, IGFR-1 (Table 2); settings: Table 2, kinase inhibition class
T10 construct: Kinases are expressed as either kinase domains or full length constructs; made in house
T10 sequence (P08069 31-1367): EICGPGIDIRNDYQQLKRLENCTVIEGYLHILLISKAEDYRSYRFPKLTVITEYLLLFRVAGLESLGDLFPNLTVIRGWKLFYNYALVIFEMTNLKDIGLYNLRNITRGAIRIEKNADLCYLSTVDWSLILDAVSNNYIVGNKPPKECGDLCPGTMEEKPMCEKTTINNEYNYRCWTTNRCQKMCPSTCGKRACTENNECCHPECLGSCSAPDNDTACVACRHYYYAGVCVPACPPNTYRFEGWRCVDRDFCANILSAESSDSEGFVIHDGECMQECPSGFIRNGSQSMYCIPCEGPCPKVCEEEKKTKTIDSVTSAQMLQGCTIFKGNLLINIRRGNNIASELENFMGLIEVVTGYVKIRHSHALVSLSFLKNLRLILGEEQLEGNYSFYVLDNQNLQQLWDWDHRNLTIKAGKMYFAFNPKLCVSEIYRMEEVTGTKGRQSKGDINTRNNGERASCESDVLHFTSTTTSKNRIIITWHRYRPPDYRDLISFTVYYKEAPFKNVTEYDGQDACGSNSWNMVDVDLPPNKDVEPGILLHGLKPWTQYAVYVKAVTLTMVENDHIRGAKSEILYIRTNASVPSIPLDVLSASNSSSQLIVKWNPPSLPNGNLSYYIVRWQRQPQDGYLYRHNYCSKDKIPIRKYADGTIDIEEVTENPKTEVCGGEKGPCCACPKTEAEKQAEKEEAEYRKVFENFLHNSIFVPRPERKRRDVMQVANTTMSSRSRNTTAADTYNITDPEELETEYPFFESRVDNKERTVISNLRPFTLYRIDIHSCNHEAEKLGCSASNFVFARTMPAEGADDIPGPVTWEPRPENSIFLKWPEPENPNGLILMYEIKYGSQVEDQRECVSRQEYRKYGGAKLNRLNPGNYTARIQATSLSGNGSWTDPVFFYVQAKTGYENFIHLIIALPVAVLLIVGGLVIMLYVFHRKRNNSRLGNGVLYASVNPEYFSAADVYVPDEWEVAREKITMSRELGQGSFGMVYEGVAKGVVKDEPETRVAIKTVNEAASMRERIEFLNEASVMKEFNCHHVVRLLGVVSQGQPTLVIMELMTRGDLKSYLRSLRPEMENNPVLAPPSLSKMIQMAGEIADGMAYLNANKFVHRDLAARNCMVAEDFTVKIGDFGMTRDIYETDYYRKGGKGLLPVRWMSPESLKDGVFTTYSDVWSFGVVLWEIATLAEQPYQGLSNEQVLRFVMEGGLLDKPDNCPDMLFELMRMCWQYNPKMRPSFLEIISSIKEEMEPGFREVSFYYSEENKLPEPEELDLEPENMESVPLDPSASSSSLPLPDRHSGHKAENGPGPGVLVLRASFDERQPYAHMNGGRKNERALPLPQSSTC

PDGFRB = biological target: T11, PDGFRB (Homo sapiens, UniProt P09619); experiment: Kinase inhibition assay (33P transfer), PDGFRB; settings: read-out: PDGFRB-1
T11 construct: Kinases are expressed as either kinase domains or full length constructs; made in house

T1 sequence (P06239 whole entry, species assumed, the tested form may be a part): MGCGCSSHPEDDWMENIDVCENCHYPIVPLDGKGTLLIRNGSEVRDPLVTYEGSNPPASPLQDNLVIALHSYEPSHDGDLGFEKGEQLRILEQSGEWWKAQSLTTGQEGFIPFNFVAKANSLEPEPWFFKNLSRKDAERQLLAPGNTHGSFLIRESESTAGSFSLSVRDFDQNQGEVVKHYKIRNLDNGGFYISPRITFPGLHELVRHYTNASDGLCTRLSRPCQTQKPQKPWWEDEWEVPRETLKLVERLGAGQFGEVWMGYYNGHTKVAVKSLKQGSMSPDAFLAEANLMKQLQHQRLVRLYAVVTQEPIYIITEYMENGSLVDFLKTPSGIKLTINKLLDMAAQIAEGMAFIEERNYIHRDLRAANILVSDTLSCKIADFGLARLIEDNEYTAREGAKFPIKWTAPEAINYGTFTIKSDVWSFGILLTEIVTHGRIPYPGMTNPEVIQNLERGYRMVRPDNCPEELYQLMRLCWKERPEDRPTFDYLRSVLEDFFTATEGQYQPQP

| SMILES | IC50 (Lck) [µM] | IC50 (Zap-70) [µM] | IC50 (Itk) [µM] | IC50 (EGFR) [µM] | IC50 (ErbB2) [µM] | IC50 (Kdr; read-out: KDR-1) [µM] | IC50 (Tek) [µM] | IC50 (c-Met) [µM] | IC50 (AKT) [µM] | IC50 (IGFR-1) [µM] | IC50 (PDGFRB) [µM] | IC50 (Kdr; KDR-1) [µM] |
| --- | --- | --- | --- | --- | --- | --- | --- | --- | --- | --- | --- | --- |
| CCc1ccc(Nc2ncnc(-n3c(N)nc4ccccc43)n2)cc1 [Compound 657] | 7.24 to 10.6 | 1.21 to 7.24 | 7.24 to 10.6 | 1.21 to 7.24 | 1.21 to 7.24 | 1.21 to 7.24 | 1.21 to 7.24 | 7.24 to 10.6 | 7.24 to 10.6 | 1.21 to 7.24 | 7.24 to 10.6 | – |
| COc1cc(Nc2ncnc(-n3nc(-c4ccccc4)cc3N)n2)cc(OC)c1OC [Compound 520] | 0.954 to 5.72 | > 10.7 | 0.954 to 5.72 | > 10.7 | > 10.7 | > 10.7 | > 10.7 | > 10.7 | > 10.7 | 0.954 to 5.72 | > 10.7 | – |
| COc1cc(Nc2ncnc(-n3c(NCc4nc5ccccc5[nH]4)nc4ccccc43)n2)cc(OC)c1OC [Compound 954] | 6.69 to 8.6 | > 8.6 | 4.58 to 6.69 | > 8.6 | 4.58 to 6.69 | 6.69 to 8.6 | > 8.6 | 6.69 to 8.6 | > 8.6 | 6.69 to 8.6 | > 8.6 | – |
| O=C(O)Cc1cccc(Nc2ncnc(Nc3cc(-c4ccccc4)n[nH]3)n2)c1 [Compound 981] | 1.03 to 6.2 | > 11.6 | 1.03 to 6.2 | < 1.03 | 1.03 to 6.2 | < 1.03 | 1.03 to 6.2 | < 1.03 | > 11.6 | < 1.03 | 1.03 to 6.2 | – |
| Nc1nc2ccccc2n1-c1ncnc(Nc2cccnc2)n1 [Compound 658] | > 14.8 | > 14.8 | 1.31 to 7.89 | 7.89 to 11.5 | > 14.8 | 1.31 to 7.89 | > 14.8 | > 14.8 | > 14.8 | < 1.31 | > 14.8 | – |
| Nc1nc2ccccc2n1-c1ncnc(Nc2cccc(Cl)c2)n1 [Compound 474] | 1.18 to 7.11 | 7.11 to 10.4 | 1.18 to 7.11 | 1.18 to 7.11 | 1.18 to 7.11 | 1.18 to 7.11 | 1.18 to 7.11 | 1.18 to 7.11 | 1.18 to 7.11 | 1.18 to 7.11 | 1.18 to 7.11 | – |
| CCN(CC)C(=O)C1CCCN(c2ncnc(Nc3cc(OC)c(OC)c(OC)c3)n2)C1 (stereo not drawn) [Compound 615] | 7.87 to 10.1 | > 10.1 | 7.87 to 10.1 | > 10.1 | > 10.1 | > 10.1 | > 10.1 | > 10.1 | > 10.1 | > 10.1 | > 10.1 | – |
| COc1cccc(Nc2ncnc(-n3c(N)nc4ccccc43)n2)c1 [Compound 654] | 1.2 to 7.2 | > 13.5 | 1.2 to 7.2 | 7.2 to 10.5 | 1.2 to 7.2 | < 1.2 | 1.2 to 7.2 | 7.2 to 10.5 | > 13.5 | < 1.2 | 1.2 to 7.2 | – |
| COc1cc(Nc2ncnc(Nc3cccc(C(F)(F)F)c3)n2)cc(OC)c1OC [Compound 614] | 0.949 to 5.7 | > 10.7 | > 10.7 | < 0.949 | 0.949 to 5.7 | 8.31 to 10.7 | 8.31 to 10.7 | > 10.7 | > 10.7 | < 0.949 | 0.949 to 5.7 | – |
| COc1cc(Nc2ncnc(-n3c(N)nc4ccccc43)n2)ccc1OCCN1CCOCC1 [Compound 650] | 0.865 to 5.19 | > 9.73 | > 9.73 | > 9.73 | – | < 0.865 | 7.57 to 9.73 | 7.57 to 9.73 | > 9.73 | < 0.865 | 0.865 to 5.19 | – |
| COc1cc(Nc2ncnc(-n3c(C)nc4ccccc43)n2)cc(OC)c1OC [Compound 691] | 1.02 to 6.12 | > 11.5 | 6.12 to 8.92 | 6.12 to 8.92 | > 11.5 | < 1.02 | > 11.5 | 1.02 to 6.12 | > 11.5 | < 1.02 | < 1.02 | – |
| CCN(CC)CCOc1cc(Nc2ncnc(-n3c(N)nc4ccccc43)n2)ccc1OC [Compound 649] | 0.892 to 5.35 | > 10 | 7.8 to 10 | > 10 | – | 0.892 to 5.35 | 5.35 to 7.8 | > 10 | > 10 | < 0.892 | 0.892 to 5.35 | – |
| COc1cc(C)c(Nc2ncnc(Nc3cc(-c4ccccc4)n[nH]3)n2)cc1OC [Compound 978] | 0.991 to 5.95 | > 11.2 | 5.95 to 8.68 | 0.991 to 5.95 | 0.991 to 5.95 | 0.991 to 5.95 | > 11.2 | < 0.991 | > 11.2 | < 0.991 | > 11.2 | – |
| COc1cc(Nc2ncnc(Nc3ccc(NS(=O)(=O)c4ccc([N+](=O)[O-])cc4)cc3)n2)cc(OC)c1OC [Compound 692] | < 0.723 | 0.723 to 4.34 | 0.723 to 4.34 | 0.723 to 4.34 | < 0.723 | < 0.723 | 0.723 to 4.34 | 4.34 to 6.32 | > 8.13 | 0.723 to 4.34 | < 0.723 | – |
| COc1ccc(Nc2ncnc(Nc3cc(-c4ccccc4)n[nH]3)n2)cc1OC [Compound 977] | < 1.03 | > 11.6 | > 11.6 | 1.03 to 6.16 | 1.03 to 6.16 | < 1.03 | > 11.6 | < 1.03 | > 11.6 | < 1.03 | > 11.6 | – |
| COc1cc(Nc2ncnc(-n3c(NCc4ccc(N(C)C)cc4)nc4ccccc43)n2)cc(OC)c1OC [Compound 593] | 0.76 to 4.56 | > 8.55 | > 8.55 | 4.56 to 6.65 | 4.56 to 6.65 | 0.76 to 4.56 | – | > 8.55 | > 8.55 | < 0.76 | 0.76 to 4.56 | – |
| Nc1nc2ccccc2n1-c1ncnc(Nc2ccccc2)n1 [Compound 651] | 1.32 to 7.91 | > 14.8 | 1.32 to 7.91 | > 14.8 | – | < 1.32 | 7.91 to 11.5 | 1.32 to 7.91 | > 14.8 | < 1.32 | 1.32 to 7.91 | – |
| Nc1nc2ccccc2n1-c1ncnc(Nc2ccccn2)n1 [Compound 659] | 7.89 to 11.5 | > 14.8 | 1.31 to 7.89 | > 14.8 | > 14.8 | – | – | > 14.8 | > 14.8 | 1.31 to 7.89 | > 14.8 | 7.89 to 11.5 |
| NC(=O)c1ccc(Nc2ncnc(-c3cccnc3NCc3cccs3)n2)cc1 [Compound 1083] | 0.991 to 5.95 | > 11.2 | 8.67 to 11.2 | 0.991 to 5.95 | > 11.2 | < 0.991 | 0.991 to 5.95 | > 11.2 | > 11.2 | > 11.2 | 0.991 to 5.95 | – |
